Tested on: serum biomarkers (SAT biomarkers)
Assay: Phase 2: change (delta) in serum biomarker levels between week 0 and week 24 per dosage group (placebo, 3 g/day, 6 g/day), Human Discovery MAP250+ v2.0
Type: in vivo
Parameters: key to overall trend, Epithelial-Derived Neutrophil-Activating Protein 78 (ENA-78) / overall trend, Lactoylglutathione lyase (LGL) / overall trend, Latency-Associated Peptide of Transforming Growth Factor beta 1 (LAP TGF-b1) / overall trend, Macrophage Colony-Stimulating Factor 1 (M-CSF) / overall trend, Matrix Metalloproteinase-9, total (MMP-9, total) / overall trend, Myoglobin / overall trend, Neuronal Cell Adhesion Molecule (Nr-CAM) / overall trend, Plasminogen Activator Inhibitor 1 (PAI-1) / overall trend, Receptor tyrosine-protein kinase erbB-3 (ErbB3) / overall trend, Vascular Endothelial Growth Factor C (VEGF-C) / overall trend, Chromogranin-A (CgA): normalization: level moved toward normal level and the change in 6 g/day group was larger compared to placebo; stabilization: level might still move away from normal level but at a slower rate in 6 g/day group compared to placebo
Conditions: HIBM patients
Method: Forty-seven (47) HIBM patient serum samples collected at week 24 from phase 2 study were tested using the Human Discovery MAP250+ v2.0 quantitative immunoassay system developed by Myriad RBM. The results were compared to the serum samples of the same 47 HIBM patients collected at week 0 (baseline) which were conducted earlier with the same immunoassay system.
Patients were unblinded and the results were organized into the 3 assigned dosage groups, placebo (n=14), 3 g/day (n=17) and 6 g/day (n=14). The major focus of the analysis was 1) to assess changes (delta, Δ) in levels of analytes between baseline and week 24 in each dosage group, 2) whether the changes correlate to dosage levels.
Analytes were excluded from analysis if […] of the HIBM patient samples were below least detectable dose (LDD). Within each dosage group, individual values with >5× difference to the mean of the dosage group were considered as outliers and thus removed from analysis.
Upon treatment, levels of these analytes show an overall trend of either stabilization or normalization. […] For example, LAP TGF-b1 is an example of biomarker showing trend of normalization when the baseline level in HIBM patients is higher than normal controls, see FIG. 2. NCAM is another example of biomarker showing trend of normalization when the baseline level in HIBM patients is lower than normal controls, see FIG. 3.

CC(=O)N[C@H]1[C@H]([C@H](O)[C@H](O)CO)OC(O)(C(=O)O)C[C@@H]1O (stereo partly drawn) [Sialic Acid, 5-N-acetylneuraminic acid]
average Δweek 0-24 (3 g/day), Chromogranin-A (CgA) (3 g/day, week 0 to week 24): 64.00 ng/mL | average Δweek 0-24 (3 g/day), Epithelial-Derived Neutrophil-Activating Protein 78 (ENA-78) (3 g/day, week 0 to week 24): -0.26 ng/mL | average Δweek 0-24 (3 g/day), Lactoylglutathione lyase (LGL) (3 g/day, week 0 to week 24): 0.25 ng/mL | average Δweek 0-24 (3 g/day), Latency-Associated Peptide of Transforming Growth Factor beta 1 (LAP TGF-b1) (3 g/day, week 0 to week 24): -0.44 ng/mL | average Δweek 0-24 (3 g/day), Macrophage Colony-Stimulating Factor 1 (M-CSF) (3 g/day, week 0 to week 24): 0.10 ng/mL | average Δweek 0-24 (3 g/day), Matrix Metalloproteinase-9, total (MMP-9, total) (3 g/day, week 0 to week 24): 449.18 ng/mL | average Δweek 0-24 (3 g/day), Myoglobin (3 g/day, week 0 to week 24): -48.88 ng/mL | average Δweek 0-24 (3 g/day), Neuronal Cell Adhesion Molecule (Nr-CAM) (3 g/day, week 0 to week 24): -0.07 ng/mL | average Δweek 0-24 (3 g/day), Plasminogen Activator Inhibitor 1 (PAI-1) (3 g/day, week 0 to week 24): 0.82 ng/mL | average Δweek 0-24 (3 g/day), Receptor tyrosine-protein kinase erbB-3 (ErbB3) (3 g/day, week 0 to week 24): -0.28 ng/mL | average Δweek 0-24 (3 g/day), Vascular Endothelial Growth Factor C (VEGF-C) (3 g/day, week 0 to week 24): 1.35 ng/mL | overall trend, Chromogranin-A (CgA) (6 g/day vs placebo, week 24): stabilization | overall trend, Epithelial-Derived Neutrophil-Activating Protein 78 (ENA-78) (6 g/day vs placebo, week 24): normalization | overall trend, Lactoylglutathione lyase (LGL) (6 g/day vs placebo, week 24): normalization | overall trend, Latency-Associated Peptide of Transforming Growth Factor beta 1 (LAP TGF-b1) (6 g/day vs placebo, week 24): normalization | overall trend, Macrophage Colony-Stimulating Factor 1 (M-CSF) (6 g/day vs placebo, week 24): stabilization | overall trend, Matrix Metalloproteinase-9, total (MMP-9, total) (6 g/day vs placebo, week 24): stabilization | overall trend, Myoglobin (6 g/day vs placebo, week 24): normalization | overall trend, Neuronal Cell Adhesion Molecule (Nr-CAM) (6 g/day vs placebo, week 24): normalization | overall trend, Plasminogen Activator Inhibitor 1 (PAI-1) (6 g/day vs placebo, week 24): normalization | overall trend, Receptor tyrosine-protein kinase erbB-3 (ErbB3) (6 g/day vs placebo, week 24): stabilization | overall trend, Vascular Endothelial Growth Factor C (VEGF-C) (6 g/day vs placebo, week 24): stabilization | average Δweek 0-24 (6 g/day), Chromogranin-A (CgA) (6 g/day, week 0 to week 24): 5.83 ng/mL | average Δweek 0-24 (6 g/day), Epithelial-Derived Neutrophil-Activating Protein 78 (ENA-78) (6 g/day, week 0 to week 24): -0.42 ng/mL | average Δweek 0-24 (6 g/day), Lactoylglutathione lyase (LGL) (6 g/day, week 0 to week 24): -8.27 ng/mL | average Δweek 0-24 (6 g/day), Latency-Associated Peptide of Transforming Growth Factor beta 1 (LAP TGF-b1) (6 g/day, week 0 to week 24): -1.00 ng/mL | average Δweek 0-24 (6 g/day), Macrophage Colony-Stimulating Factor 1 (M-CSF) (6 g/day, week 0 to week 24): 0.02 ng/mL | average Δweek 0-24 (6 g/day), Matrix Metalloproteinase-9, total (MMP-9, total) (6 g/day, week 0 to week 24): 444.64 ng/mL | average Δweek 0-24 (6 g/day), Myoglobin (6 g/day, week 0 to week 24): -38.00 ng/mL | average Δweek 0-24 (6 g/day), Neuronal Cell Adhesion Molecule (Nr-CAM) (6 g/day, week 0 to week 24): 0.02 ng/mL | average Δweek 0-24 (6 g/day), Plasminogen Activator Inhibitor 1 (PAI-1) (6 g/day, week 0 to week 24): -0.36 ng/mL | average Δweek 0-24 (6 g/day), Receptor tyrosine-protein kinase erbB-3 (ErbB3) (6 g/day, week 0 to week 24): -0.16 ng/mL | average Δweek 0-24 (6 g/day), Vascular Endothelial Growth Factor C (VEGF-C) (6 g/day, week 0 to week 24): 6.43 ng/mL
